Experimental data published in patent US20260070945A1, “MACROCYCLIC IMMUNOMODULATORS” (Bristol-Myers Squibb Company, priority 2022, published 2026).
*1 amine or outer side, *2 acyl side, *3 side chain or, on linkers, in order; H or OH if unused. Where a SMILES comes first, the peptide text is derived from it. Bridges are numbered along the chain shown (N, C = ends). [ ]: non-standard residue; d: D form. The star is where a group is joined. ξ: configuration not given here. Trp(βS-Me) = C[C@@H](c1c[nH]c2ccccc12)[C@H](N)C(=O)O; Phe(4-COOH) = N[C@@H](Cc1ccc(C(=O)O)cc1)C(=O)O; Bip = N[C@@H](Cc1ccc(-c2ccccc2)cc1)C(=O)O; Phe(3-Cl) = N[C@@H](Cc1cccc(Cl)c1)C(=O)O; Phe(4-CN) = N#Cc1ccc(C[C@H](N)C(=O)O)cc1; Phe(3-Me) = Cc1cccc(C[C@H](N)C(=O)O)c1; NMeAEEA = CN(CCOCCOCC(=O)[*:2])[*:1]; Val(3-OH) = CC(C)(O)[C@H](N)C(=O)O; 4Pal = N[C@@H](Cc1ccncc1)C(=O)O; Cha = N[C@@H](CC1CCCCC1)C(=O)O; Ile(3ξ) = CCC(C)[C@H](N)C(=O)O; Thr(3ξ) = CC(O)[C@H](N)C(=O)O; 12Ado = NCCCCCCCCCCCC(=O)O; hSer = N[C@@H](CCO)C(=O)O; Carboxymethyl = O=C(O)C*; NMeA = CN[C@@H](C)C(=O)O; Orn = NCCC[C@H](N)C(=O)O; Aun = NCCCCCCCCCCC(=O)O; Dab = NCC[C@H](N)C(=O)O; Dap = NC[C@H](N)C(=O)O; AEEA = NCCOCCOCC(=O)O

Target: T1, PD-1/PD-L1 interaction (PE-labeled human PD-L1-Ig binding to Jurkat cell line over-expressing human PD-1) (Homo sapiens, UniProt Q15116)
T1 construct: expressed in transfected cells; host or cells: Jurkat
Assay: Jurkat-PD-1 Cell Binding High-Content Screening Assay (CBA)
Settings: Jurkat-hPD-1 cells, PE-labeled PD-L1-Ig 20 nM final; read-out: Jurkat HPD1 PDL1 IC50
Method in brief: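 Jurkat cells overexpressing human PD-1 (8×10^3/well, DMEM + 10% FCS) preincubated with compound 2 h at 37 °C, then PE-labelled human PD-L1-Ig (20 nM final) for 1 h. Cells fixed in paraformaldehyde with Hoechst 33342; bound PD-L1 quantified by high-content imaging.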

T1 sequence (Q15116 25-288): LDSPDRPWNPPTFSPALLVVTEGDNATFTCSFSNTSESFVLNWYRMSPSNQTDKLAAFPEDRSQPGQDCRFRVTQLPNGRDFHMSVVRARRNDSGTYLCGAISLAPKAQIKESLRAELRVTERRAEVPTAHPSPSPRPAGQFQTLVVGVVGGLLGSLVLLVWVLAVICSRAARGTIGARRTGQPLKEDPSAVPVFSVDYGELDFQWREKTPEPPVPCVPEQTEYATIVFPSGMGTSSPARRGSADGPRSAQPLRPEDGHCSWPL

Row | IC50 | Structure (SMILES)
1 | 19.2 nM | CCC(C)[C@@H]1NC(=O)[C@H](Cc2ccc(-c3ccccc3)cc2)NC(=O)[C@H](C(C)C)NC(=O)[C@H](Cc2c[nH]c3ccccc23)NC(=O)[C@H](CC(=O)O)NC(=O)[C@H](Cc2ccc(OCC(=O)O)cc2)NC(=O)[C@H](Cc2ccncc2)NC(=O)CSC[C@@H](C(=O)NCCOCCOCC(=O)N[C@@H](CCCCN)C(=O)NCCCCCCCCCCC(=O)O)NC(=O)[C@H](CO)NC(=O)[C@H](C(C)C)NC(=O)[C@H](CC2CCCCC2)NC(=O)[C@H](CCN)NC(=O)[C@@H](CC(C)C)NC(=O)[C@H](C)N(C)C1=O (stereo partly drawn) [Example 2033] ({CH2CO}-[4Pal]Y(Carboxymethyl)DWV[Bip][Ile(3ξ)][NMeA][dL][Dab][Cha]VSC[AEEA]K[Aun]-OH; thioether N-14)
2 | 327 nM | CC(C)C[C@H]1NC(=O)[C@H](C)N(C)C(=O)[C@H](Cc2ccc(OCC(=O)O)cc2)NC(=O)[C@H](Cc2ccc(-c3ccccc3)cc2)NC(=O)[C@H](Cc2ccc(OCC(=O)O)cc2)NC(=O)[C@H]([C@@H](C)c2c[nH]c3ccccc23)NC(=O)[C@H](CC(=O)O)NC(=O)[C@H](Cc2ccc(OCC(=O)O)cc2)NC(=O)[C@H](CCCNC(=N)N)NC(=O)CSC[C@@H](C(=O)N[C@@H](CCN)C(=O)NCCCCCCCCCCC(=O)O)NC(=O)[C@H]([C@@H](C)O)NC(=O)[C@H](C(C)C)NC(=O)[C@H](CC2CCCCC2)NC(=O)[C@H](CCN)NC1=O [Example 1273] ({CH2CO}-RY(Carboxymethyl)D[Trp(βS-Me)]Y(Carboxymethyl)[Bip]Y(Carboxymethyl)[NMeA][dL][Dab][Cha]VTC[Dab][Aun]-OH; thioether N-14)
3 | 41.2 nM | CC(=O)NCCCC[C@@H]1NC(=O)[C@H](Cc2ccc(-c3ccccc3)cc2)NC(=O)[C@H](C(C)C)NC(=O)[C@H](Cc2cccc(C)c2)NC(=O)[C@H](CC(=O)O)NC(=O)[C@H](Cc2ccc(OCC(=O)O)cc2)NC(=O)[C@H](CN)NC(=O)CSC[C@@H](C(=O)N(C)CCOCCOCC(=O)NCCCCCCCCCCC(=O)O)NC(=O)[C@H](CCCN)NC(=O)[C@H](C(C)C)NC(=O)[C@H](CC2CCCCC2)NC(=O)[C@H](CCN)NC(=O)[C@@H](CC(C)C)NC(=O)[C@H](C)N(C)C1=O [Example 2415] ({CH2CO}-[Dap]Y(Carboxymethyl)D[Phe(3-Me)]V[Bip]K(Ac)[NMeA][dL][Dab][Cha]V[Orn]C[NMeAEEA][Aun]-OH; thioether N-14)
4 | 28.9 nM | Cc1cccc(C[C@@H]2NC(=O)[C@H](CC(=O)O)NC(=O)[C@H](Cc3ccc(OCC(=O)O)cc3)NC(=O)[C@H]([C@@H](C)O)NC(=O)CSC[C@@H](C(=O)N[C@@H](CCN)C(=O)NCCOCCOCC(=O)NCCCCCCCCCCC(=O)O)NC(=O)[C@H](CCC(=O)O)NC(=O)[C@H](C(C)(C)O)NC(=O)[C@H](CC3CCCCC3)NC(=O)[C@H](CCN)NC(=O)[C@@H](CC(C)C)NC(=O)[C@H](C)N(C)C(=O)[C@H](Cc3ccc(OCC(=O)O)cc3)NC(=O)[C@H](Cc3ccc(-c4ccccc4)cc3)NC(=O)[C@H](Cc3ccc(OCC(=O)O)cc3)NC2=O)c1 [Example 1408] ({CH2CO}-TY(Carboxymethyl)D[Phe(3-Me)]Y(Carboxymethyl)[Bip]Y(Carboxymethyl)[NMeA][dL][Dab][Cha][Val(3-OH)]EC[Dab][AEEA][Aun]-OH; thioether N-14)
5 | 15.2 nM | CC(C)C[C@H]1NC(=O)[C@H](C)N(C)C(=O)[C@H](Cc2ccc(OCC(=O)O)cc2)NC(=O)[C@H](Cc2ccc(-c3ccccc3)cc2)NC(=O)[C@H](Cc2ccc(OCC(=O)O)cc2)NC(=O)[C@H](Cc2cccc(Cl)c2)NC(=O)[C@H](CC(=O)O)NC(=O)[C@H](Cc2ccc(OCC(=O)O)cc2)NC(=O)[C@H]([C@@H](C)O)NC(=O)CSC[C@@H](C(=O)N[C@@H](CCN)C(=O)NCCOCCOCC(=O)NCCCCCCCCCCC(=O)O)NC(=O)[C@H](CCC(=O)O)NC(=O)[C@H](C(C)C)NC(=O)[C@H](CC2CCCCC2)NC(=O)[C@H](CCN)NC1=O [Example 1229] ({CH2CO}-TY(Carboxymethyl)D[Phe(3-Cl)]Y(Carboxymethyl)[Bip]Y(Carboxymethyl)[NMeA][dL][Dab][Cha]VEC[Dab][AEEA][Aun]-OH; thioether N-14)
6 | 36.3 nM | Cc1cccc(C[C@@H]2NC(=O)[C@H](CC(=O)O)NC(=O)[C@H](Cc3ccc(OCC(=O)O)cc3)NC(=O)[C@H](C(C)O)NC(=O)CSC[C@@H](C(=O)N(C)CCOCCOCC(=O)NCCCCCCCCCCC(=O)O)NC(=O)[C@H](CCO)NC(=O)[C@H](C(C)C)NC(=O)[C@H](CC3CCCCC3)NC(=O)[C@H](CCN)NC(=O)[C@@H](CC(C)C)NC(=O)[C@H](C)N(C)C(=O)[C@H](C(C)C)NC(=O)[C@H](Cc3ccc(-c4ccccc4)cc3)NC(=O)[C@H](C(C)C)NC2=O)c1 (stereo partly drawn) [Example 2364] ({CH2CO}-[Thr(3ξ)]Y(Carboxymethyl)D[Phe(3-Me)]V[Bip]V[NMeA][dL][Dab][Cha]V[hSer]C[NMeAEEA][Aun]-OH; thioether N-14)
7 | 34.6 nM | Cc1cccc(C[C@@H]2NC(=O)[C@H](CC(=O)O)NC(=O)[C@H](Cc3ccc(C(=O)O)cc3)NC(=O)[C@H](Cc3ccc(OCC(=O)O)cc3)NC(=O)CSC[C@@H](C(=O)NCCOCCOCC(=O)NCCCCCCCCCCC(=O)O)NC(=O)[C@H](CCC(=O)O)NC(=O)[C@H](C(C)C)NC(=O)[C@H](CC3CCCCC3)NC(=O)[C@H](CCN)NC(=O)[C@@H](CC(C)C)NC(=O)[C@H](C)N(C)C(=O)[C@H](C(C)C)NC(=O)[C@H](Cc3ccc(-c4ccccc4)cc3)NC(=O)[C@H](CC(C)C)NC2=O)c1 [Example 2296] ({CH2CO}-Y(Carboxymethyl)[Phe(4-COOH)]D[Phe(3-Me)]L[Bip]V[NMeA][dL][Dab][Cha]VEC[AEEA][Aun]-OH; thioether N-14)

Same assay, conditions: PE-labeled PD-L1-Ig 20 nM final, Jurkat-hPD-1 cells; read-out: Jurkat HPD1 PDL1 IC50

Row | IC50 | Structure (SMILES)
8 | 21.3 nM | Cc1cccc(C[C@@H]2NC(=O)[C@H](CC(=O)O)NC(=O)[C@H](Cc3ccc(OCC(=O)O)cc3)NC(=O)[C@H]([C@@H](C)O)NC(=O)CSC[C@@H](C(=O)N[C@@H](CCN)C(=O)NCCOCCOCC(=O)NCCCCCCCCCCCC(=O)O)NC(=O)[C@H](Cc3ccc(-c4ccccc4)cc3)NC(=O)[C@H](C(C)C)NC(=O)[C@H](CC3CCCCC3)NC(=O)[C@H](CCN)NC(=O)[C@@H](CC(C)C)NC(=O)[C@H](C)N(C)C(=O)[C@H](Cc3ccc(OCC(=O)O)cc3)NC(=O)[C@H](Cc3ccc(-c4ccccc4)cc3)NC(=O)[C@H](Cc3ccc(OCC(=O)O)cc3)NC2=O)c1 [Example 2674] ({CH2CO}-TY(Carboxymethyl)D[Phe(3-Me)]Y(Carboxymethyl)[Bip]Y(Carboxymethyl)[NMeA][dL][Dab][Cha]V[Bip]C[Dab][AEEA][12Ado]-OH; thioether N-14)
9 | 41.2 nM | Cc1cccc(C[C@@H]2NC(=O)[C@H](CC(=O)O)NC(=O)[C@H](Cc3ccc(C(=O)O)cc3)NC(=O)[C@H](C(C)O)NC(=O)CSC[C@@H](C(=O)N[C@@H](CCN)C(=O)NCCOCCOCC(=O)NCCCCCCCCCCC(=O)O)NC(=O)[C@H](CCC(=O)O)NC(=O)[C@H](CO)NC(=O)[C@H](CC3CCCCC3)NC(=O)[C@H](CCN)NC(=O)[C@@H](CC(C)C)NC(=O)[C@H](C)N(C)C(=O)[C@H](Cc3ccc(C(=O)O)cc3)NC(=O)[C@H](Cc3ccc(-c4ccccc4)cc3)NC(=O)[C@H](Cc3ccc(C(=O)O)cc3)NC2=O)c1 (stereo partly drawn) [Example 2556] ({CH2CO}-[Thr(3ξ)][Phe(4-COOH)]D[Phe(3-Me)][Phe(4-COOH)][Bip][Phe(4-COOH)][NMeA][dL][Dab][Cha]SEC[Dab][AEEA][Aun]-OH; thioether N-14)
10 | 3.1 nM | CCC(C)[C@@H]1NC(=O)[C@H](Cc2ccc(-c3ccccc3)cc2)NC(=O)[C@H](C(C)C)NC(=O)[C@H](Cc2c[nH]c3ccccc23)NC(=O)[C@H](CC(=O)O)NC(=O)[C@H](Cc2ccc(OCC(=O)O)cc2)NC(=O)[C@H](Cc2cnc[nH]2)NC(=O)CSC[C@@H](C(=O)N[C@@H](CCN)C(=O)NCCOCCOCC(=O)NCCCCCCCCCCC(=O)O)NC(=O)[C@H](CCC(=O)O)NC(=O)[C@H](C(C)(C)O)NC(=O)[C@H](CC2CCCCC2)NC(=O)[C@H](CCN)NC(=O)[C@@H](CC(C)C)NC(=O)[C@H](C)N(C)C1=O (stereo partly drawn) [Example 2591] ({CH2CO}-HY(Carboxymethyl)DWV[Bip][Ile(3ξ)][NMeA][dL][Dab][Cha][Val(3-OH)]EC[Dab][AEEA][Aun]-OH; thioether N-14)
11 | 18.7 nM | Cc1cccc(C[C@@H]2NC(=O)[C@H](CC(=O)O)NC(=O)[C@H](Cc3ccc(C(=O)O)cc3)NC(=O)[C@H](CCN)NC(=O)CSC[C@@H](C(=O)N[C@@H](CCN)C(=O)NCCOCCOCC(=O)NCCCCCCCCCCC(=O)O)NC(=O)[C@H](CCC(=O)O)NC(=O)[C@H](C(C)O)NC(=O)[C@H](CC3CCCCC3)NC(=O)[C@H](CCN)NC(=O)[C@@H](CC(C)C)NC(=O)[C@H](C)N(C)C(=O)[C@H](Cc3ccc(C(=O)O)cc3)NC(=O)[C@H](Cc3ccc(-c4ccccc4)cc3)NC(=O)[C@H](Cc3ccc(C(=O)O)cc3)NC2=O)c1 (stereo partly drawn) [Example 2552] ({CH2CO}-[Dab][Phe(4-COOH)]D[Phe(3-Me)][Phe(4-COOH)][Bip][Phe(4-COOH)][NMeA][dL][Dab][Cha][Thr(3ξ)]EC[Dab][AEEA][Aun]-OH; thioether N-14)
12 | 7.9 nM | Cc1cccc(C[C@@H]2NC(=O)[C@H](CC(=O)O)NC(=O)[C@H](Cc3ccc(C#N)cc3)NC(=O)[C@H](C(C)O)NC(=O)CSC[C@@H](C(=O)N[C@@H](CCN)C(=O)NCCOCCOCC(=O)NCCOCCOCC(=O)NCCCCCCCCCCC(=O)O)NC(=O)[C@H](Cc3cnc[nH]3)NC(=O)[C@H](C(C)O)NC(=O)[C@H](CC3CCCCC3)NC(=O)[C@H](CCN)NC(=O)[C@@H](CC(C)C)NC(=O)[C@H](C)N(C)C(=O)[C@H](Cc3ccc(OCC(=O)O)cc3)NC(=O)[C@H](Cc3ccc(-c4ccccc4)cc3)NC(=O)[C@H](Cc3ccc(OCC(=O)O)cc3)NC2=O)c1 (stereo partly drawn) [Example 2525] ({CH2CO}-[Thr(3ξ)][Phe(4-CN)]D[Phe(3-Me)]Y(Carboxymethyl)[Bip]Y(Carboxymethyl)[NMeA][dL][Dab][Cha][Thr(3ξ)]HC[Dab][AEEA][AEEA][Aun]-OH; thioether N-14)
